Test systems include Micrococcus luteus; Bacillus megaterium; Aureobasidium pullulans; Listeria innocua; Escherichia coli; Leuconostoc lactis; Candida krusei ATCC 6258; Bacillus cereus; Candida albicans SC5314; Staphylococcus aureus; Streptococcus uberis; Pasteurella multocida; Bacillus subtilis; Escherichia coli 780; Staphylococcus aureus 75; Escherichia coli 804.
What all share (test): ≥ marks a high value that may be exact or a test limit, other limits are often not marked, values filed in µg/mL are converted to µM
The test system of assay [1] is Pseudomonas aeruginosa ATCC 27853.
Assay [2] concerns Candida albicans ATCC 10231.
Assay [3] has as its system Escherichia coli ATCC 25922.
Assay [4] relates to Corynebacterium glutamicum ATCC 13032.
Assay [5] has as its system Staphylococcus aureus ATCC 9144.
For assay [6], the system named is Bacillus subtilis ATCC 23857.
Assay [7] deals with Staphylococcus epidermidis.
Assay [8] concerns Batrachochytrium dendrobatidis.
In assay [9] the test system is Candida parapsilosis ATCC 22019.
Assay [10] deals with Candida albicans ATCC 90028.
The test system of assay [11] is Staphylococcus aureus ATCC 2592.
The subject of assay [12] is Pseudomonas aeruginosa 50.
The test system of assay [13] is Pseudomonas aeruginosa ATCC 9027.
Assay [14] deals with Staphylococcus epidermidis ATCC 12228.
Assay [15] has as its system Acinetobacter baumannii 97830.
For assay [16], the system named is Klebsiella pneumoniae ATCC 700603.
For assay [17], the system named is Pseudomonas aeruginosa 73.
The test system of assay [18] is Staphylococcus aureus 113.
The subject of assay [19] is Acinetobacter baumannii ATCC 19606.
Assay [20] has as its system Acinetobacter baumannii 9931.
In assay [21] the test system is Staphylococcus aureus ATCC 29213.

Consider 6 molecules from DBAASP.

Converted amounts (≈) assume the structure as drawn.

In general, MIC refers to the lowest concentration that inhibits growth of the organism. A high value points to a less susceptible organism.

For `C[C@H](NC(=O)[C@H](CCCCN)NC(=O)[C@H](Cc1c[nH]c2ccccc12)NC(=O)[C@H](Cc1c[nH]c2ccccc12)NC(=O)[C@H](Cc1c[nH]c2ccccc12)NC(=O)[C@@H]1CCCN1C(=O)[C@H](CCCCN)NC(=O)[C@H](CCCCN)NC(=O)CN)C(=O)N[C@@H](CCCCN)C(N)=O` [GKKPWWWKAK], the MIC in the assay with Micrococcus luteus was found to be 23.8 µM (≈ 31.3 µg/mL); in [1] it was 190 µM (≈ 250 µg/mL); against Bacillus megaterium, 0.761 µM (≈ 0.999 µg/mL); in assay [2], 23.8 µM (≈ 31.3 µg/mL); in assay [3], 23.8 µM (≈ 31.3 µg/mL); in assay [4], 1.52 µM (≈ 2 µg/mL). Further, the MIC is not below 95.1 µM in [5], 11.9 µM (≈ 15.6 µg/mL) in the assay with Aureobasidium pullulans and 2.97 µM (≈ 3.9 µg/mL) in assay [6].
In the case of `C[C@H](NC(=O)[C@H](CCCCN)NC(=O)[C@H](Cc1c[nH]c2ccccc12)NC(=O)[C@H](Cc1c[nH]c2ccccc12)NC(=O)[C@H](Cc1c[nH]c2ccccc12)NC(=O)[C@H](Cc1c[nH]c2ccccc12)NC(=O)[C@H](CCCCN)NC(=O)[C@H](CCCCN)NC(=O)CN)C(=O)N[C@@H](CCCCN)C(N)=O` [GKKWWWWKAK], the MIC against Micrococcus luteus worked out at 11.1 µM (≈ 15.6 µg/mL); in assay [1], 89.1 µM (≈ 125 µg/mL); against Bacillus megaterium it was 2.78 µM (≈ 3.9 µg/mL); in [2], 11.1 µM (≈ 15.6 µg/mL); in [3] it was 44.5 µM (≈ 62.5 µg/mL); in assay [4], 5.56 µM (≈ 7.79 µg/mL). Also, the MIC is not below 89.1 µM in assay [5], 5.56 µM (≈ 7.79 µg/mL) against Aureobasidium pullulans and 5.56 µM (≈ 7.79 µg/mL) in assay [6].
On to `CC[C@H](C)[C@H](NC(=O)[C@@H](NC(=O)CN)C(C)C)C(=O)N[C@@H](CC(=O)O)C(=O)N[C@@H](C)C(=O)N[C@@H](C)C(=O)N[C@@H](CCCCN)C(=O)N[C@@H](CCCCN)C(=O)N[C@@H](Cc1c[nH]c2ccccc12)C(=O)N[C@@H](CC(N)=O)C(=O)N[C@H](C(=O)N[C@@H](CC(C)C)C(=O)N[C@@H](CCCCN)C(=O)N[C@@H](CC(N)=O)C(=O)N[C@@H](CC(C)C)C(=O)N[C@@H](Cc1ccccc1)C(N)=O)C(C)C` [GVIDAAKKVVNVLKNLF], for which the MIC against Listeria innocua is 27.3 µM (≈ 49.6 µg/mL); with Escherichia coli, 54.7 µM (≈ 99.3 µg/mL); in [7] it was 6.56 µM (≈ 11.9 µg/mL); in the assay with Micrococcus luteus it was 27.3 µM (≈ 49.6 µg/mL); in assay [8], not below 100 µM; in assay [9], not below 70 µM. Further, the MIC against Leuconostoc lactis was 1.64 µM (≈ 2.98 µg/mL); in [10], not below 70 µM; with Candida krusei ATCC 6258, not below 35 µM; with Bacillus cereus, 13.7 µM (≈ 24.8 µg/mL); with Candida albicans SC5314 it was not below 35 µM; in the assay with Staphylococcus aureus it was 13.7 µM (≈ 24.8 µg/mL). The MIC was 6.56 µM (≈ 11.9 µg/mL) against Streptococcus uberis and 27.3 µM (≈ 49.6 µg/mL) with Pasteurella multocida.
With `CC(C)[C@H](N)C(=O)N[C@@H](CCCCN)C(=O)N[C@@H](CCCN=C(N)N)C(=O)N[C@@H](Cc1c[nH]c2ccccc12)C(=O)N[C@@H](CCCCN)C(=O)N[C@@H](CCCCN)C(=O)N[C@@H](Cc1c[nH]c2ccccc12)C(=O)N[C@@H](CCCCN)C(=O)N[C@@H](CCCN=C(N)N)C(=O)N[C@@H](CCCCN)C(=O)N[C@@H](Cc1c[nH]c2ccccc12)C(=O)N[C@@H](CCCCN)C(=O)N[C@@H](CCCCN)C(=O)N[C@@H](Cc1c[nH]c2ccccc12)C(=O)N[C@H](C(N)=O)C(C)C` [VKRWKKWKRKWKKWV], the MIC in assay [11] came to 2.8 µM (≈ 6.08 µg/mL); in the assay on Bacillus subtilis, 2.8 µM (≈ 6.08 µg/mL); in assay [3], 1.6 µM (≈ 3.47 µg/mL); against Candida albicans SC5314 it was 2.8 µM (≈ 6.08 µg/mL).
As for `NC(=O)[C@H](Cc1c[nH]c2ccccc12)NC(=O)[C@H](CCCN=C(N)N)NC(=O)[C@H](CCCN=C(N)N)NC(=O)[C@H](Cc1c[nH]c2ccccc12)NC(=O)[C@H](Cc1c[nH]c2ccccc12)NC(=O)[C@H](Cc1c[nH]c2ccccc12)NC(=O)[C@H](CCCN=C(N)N)NC(=O)[C@H](CCCN=C(N)N)NC(=O)[C@@H](N)Cc1c[nH]c2ccccc12` [WRRWWWRRW], the MIC in assay [12] worked out at 16 µM (≈ 25.2 µg/mL); in assay [13], 8 µM (≈ 12.6 µg/mL); in assay [14], 2 µM (≈ 3.15 µg/mL); in the assay with Escherichia coli 780, 16 µM (≈ 25.2 µg/mL); in assay [15], 16 µM (≈ 25.2 µg/mL); in assay [16], 16 µM (≈ 25.2 µg/mL). Also, the MIC is 4 µM (≈ 6.29 µg/mL) in assay [1]; 8 µM (≈ 12.6 µg/mL) in the assay on Staphylococcus aureus 75; 8 µM (≈ 12.6 µg/mL) in [17]; not below 32 µM against Escherichia coli 804; 4 µM (≈ 6.29 µg/mL) in assay [18]; 16 µM (≈ 25.2 µg/mL) in assay [19]. For the same molecule, the MIC in assay [20] was 16 µM (≈ 25.2 µg/mL); in assay [21] it was 4 µM (≈ 6.29 µg/mL); in assay [6] it was 4 µM (≈ 6.29 µg/mL).
With `NC(=O)[C@H](Cc1c[nH]c2ccccc12)NC(=O)[C@H](CCCN=C(N)N)NC(=O)[C@H](Cc1c[nH]c2ccccc12)NC(=O)[C@H](Cc1c[nH]c2ccccc12)NC(=O)[C@H](Cc1c[nH]c2ccccc12)NC(=O)[C@H](CCCN=C(N)N)NC(=O)[C@@H](N)Cc1c[nH]c2ccccc12` [WRWWWRW], the MIC in [12] was 16 µM (≈ 20.2 µg/mL); in assay [13], 32 µM (≈ 40.3 µg/mL); in assay [14] it was 2 µM (≈ 2.52 µg/mL); against Escherichia coli 780, 8 µM (≈ 10.1 µg/mL); in assay [15], 8 µM (≈ 10.1 µg/mL); in [16], 8 µM (≈ 10.1 µg/mL). The MIC in [1] was 16 µM (≈ 20.2 µg/mL); against Staphylococcus aureus 75, 4 µM (≈ 5.04 µg/mL); in [17], not below 32 µM; with Escherichia coli 804, 8 µM (≈ 10.1 µg/mL); in assay [18], 4 µM (≈ 5.04 µg/mL); in [19] it was 32 µM (≈ 40.3 µg/mL). The MIC in assay [20] is 8 µM (≈ 10.1 µg/mL); in [21], 8 µM (≈ 10.1 µg/mL); in assay [6], 4 µM (≈ 5.04 µg/mL).
